Experiments:
p21 mRNA = assay: drug-induced p21 mRNA expression in whole blood of healthy adults; format: cell-based, human; details: for kinetics of p21 induction / levels of p21 mRNA upon stimulation: 0-8 hours at 37° C., 20 μM BLM; for p21 mRNA expression: healthy leukocytes, 2 hours at 37° C. (FIG. 1)
Text: (§1) Blood was obtained from healthy adults and from two leukemic non-Hodgkin's malignant lymphoma patients. U937, KG-1, and Jurkat cells were obtained from American Type Culture Collection (ATCC, Manassas, Va.), and maintained in RPMI 1640 supplemented with 10% fetal calf serum. Of these, U937 cells are a human histiocytic lymphoma cell line, KG-1 cells are a human bone marrow myelogenous leukemia cell line, and Jurkat cells are a human T-cell lymphoblast-like, leukemia derived cell line. […] For human experiments, blood aliquots were stimulated with various anti-cancer drugs at 37° C. for 2 hours, then both p21 and BAX mRNA were measured. The anti-cancer drugs used in this study were clinical drugs, and the concentration of each drug was adjusted to typical blood levels 3-6 hours after intravenous administration.
(§2) The mRNA and cDNA were prepared from whole blood. In brief, home-made 96-well filterplates were placed over collection plates, and 150 μl 5 mM Tris, pH 7.4, was applied. Following centrifugation at 120×g for 1 min at 4° C., 50 μl of blood samples were applied to each well and immediately centrifuged at 120×g for 2 min at 4° C., followed by washing of each well with 300 μl PBS once with centrifugation at 2000×g for 5 min at 4° C. Then, 60 μl stock lysis buffer, containing for example 0.5% N-Lauroylsarcosine, 4×SSC, 10 mM Tris HCl, pH 7.4, 1 mM EDTA, 0.1% IGEPAL CA-630, and 1.791 M guanidine thiocyanate, supplemented with 1% 2-mercaptoethanol (Bio Rad, Hercules, Calif., USA), 0.5 mg/ml proteinase K (Pierce, Rockford, Ill., USA), 0.1 mg/ml salmon sperm DNA (5 Prime Eppendorf/Brinkmann, Westbury, N.Y., USA), 0.1 mg/ml E. coli tRNA (Sigma), a cocktail of 10 mM each of the specific reverse primers shown in Table 1, and standard RNA34 oligonucleotides, were applied to the filterplates, followed by incubation at 37° C. for 10 min. The filterplates were then placed over oligo(dT)-immobilized microplates (GenePlate, RNAture), and centrifuged at 2000×g for 5 min at 4° C. Following overnight storage at 4° C., the microplates were washed with 100 μl plain lysis buffer 3 times, followed by 150 μl of wash buffer (0.5 M NaCl, 10 mM Tris, pH 7.4, 1 mM EDTA) 3 times at 4° C. The cDNA was directly synthesized in each well by adding 30 μl buffer containing 1× RT-butter, 1.25 mM each of dNTP, 4 units rRNasin, and 80 units of MMLV reverse transcriptase (Promega) (without primers), and incubation at 37° C. for 2 hours. The specific primer-primed cDNA existed in solution, and oligo(dT)-primed cDNA stayed immobilized in the microplate. For TaqMan PCR (FIGS. 1, 3, 4), the resultant 4 μl cDNA solution was directly transferred to 384-well PCR plates, to which 5 μl of TaqMan universal master mix (ABI) and 1 μl oligonucleotide cocktail (15 μM each of forward and reverse primer, and 3-6 μM TaqMan probe) were applied, and PCR was conducted in PRISM 7900HT (ABI), with one cycle of 95° C. for 10 min followed by 45 cycles of 95° C. for 30 sec, 55° C. for 30 sec, and 60° C. for 1 min. For SYBR Green PCR (see FIG. 6), cDNA was diluted 3-4 fold in water, and 4 μl cDNA solution was directly transferred to 384-well PCR plates, to which 5 μl of a master mix (BioRad, Hercules, Calif.) and 1 μl of oligonucleotide cocktail (15 μM each of forward and reverse primer) were applied, and PCR was conducted in PRISM 7900HT (ABI), with one cycle of 95° C. for 10 min followed by 45 cycles of 95° C. for 30 sec and 60° C. for 1 min. Each gene was amplified in separate wells. The Ct was determined by analytical software (SDS, ABI).
In 8-well strip microtubes, 1.4 μl of 50× concentrations of drugs or controls (phosphate buffered saline (PBS) or DMSO) were added, and stored at −20° C. until use. […] Seventy μl of fresh heparinized whole blood was added into each well in triplicate, and incubated at 37° C. for 2-8 hours with the cap closed. For radiation treatment, blood was stimulated at designated doses using cesium-137.

BAX mRNA = assay: drug-induced BAX mRNA expression in whole blood of healthy adults; format: cell-based, human; details: for Bax induction: 20 μM BLM or 100 μM VP-16, 4 hours at 37° C., ΔCt smaller than p21, not induced in 1 or 2 individuals (FIG. 6); for BAX responses compared with p21 and PUMA: 100 μM VP-16 or 20 μM BLM, 2 hours at 37° C., p<0.01 (FIG. 14)
Text: as §1
as §2, with “For TaqMan PCR (FIGS. 1, 3, 4), the resultant 4 μl cDNA solution was directly transferred to 384-well PCR plates, to which 5 μl of TaqMan universal master mix (ABI) and 1 μl oligonucleotide cocktail (15 μM each of forward and reverse primer, and 3-6 μM TaqMan probe) were applied, and PCR was conducted in PRISM 7900HT (ABI), with one cycle of 95° C. for 10 min followed by 45 cycles of 95° C. for 30 sec, 55° C. for 30 sec, and 60° C. for 1 min. For SYBR Green PCR (see FIG. 6), cDNA was diluted 3-4 fold in water, and 4 μl cDNA solution was directly transferred to 384-well PCR plates, to which 5 μl of a master mix (BioRad, Hercules, Calif.) and 1 μl of oligonucleotide cocktail (15 μM each of forward and reverse primer) were applied, and PCR was conducted in PRISM 7900HT (ABI), with one cycle of 95° C. for 10 min followed by 45 cycles of 95° C. for 30 sec and 60° C. for 1 min. Each gene was amplified in separate wells.” left out, “ABI). […]” for “ABI).”

[1] = heparinized whole blood, 100 μM VP-16 (FIG. 5B)

Compound | concentration at which significant induction of p21 was observed (p21 mRNA; 0-20 μM BLM, 4 hours at 37° C. (FIG. 7)) | p21 induction (p21 mRNA; BLM at concentrations as low as 0.2 μM, 2 hours at 37° C., all cases (FIG. 10A)) | kinetics of p21 induction (p21 mRNA; [1]) | levels of p21 mRNA upon stimulation (p21 mRNA; [1]) | Bax induction (BAX mRNA) | BAX responses compared with p21 and PUMA (BAX mRNA) | p21 induction (p21 mRNA; 10 μM VP-16, 2 hours at 37° C. (FIG. 9A)) | p21 expression (p21 mRNA; 100 μM VP-16, 2 hours at 37° C. (FIG. 9A)) | p21 mRNA expression (p21 mRNA; 10 μM etoposide) | p21 mRNA expression (p21 mRNA; 100 μM etoposide) | peak of transient p21 induction (p21 mRNA; [1]) [h]
bleomycin [BLM] | more than 0.1 VM | induced | increased continuously for 8 hours | significantly increased | induced | significantly less than those of p21 and PUMA |  |  |  |  | 
COc1cc([C@@H]2c3cc4c(cc3[C@@H](O[C@@H]3O[C@@H]5CO[C@@H](C)O[C@H]5[C@H](O)[C@H]3O)[C@H]3COC(=O)[C@H]23)OCO4)cc(OC)c1O [VP-16, etoposide] |  |  | transient induction | significantly increased | induced | significantly less than those of p21 and PUMA | failed to induce p21 in many cases | majority of individuals exhibited increased p21 expression | no significant p21 mRNA expression | expressed significantly | 2 to 4
